# Patent US20220387608A1, “ADRENOMEDULLIN-ANALOGUES FOR LONG-TERM STABILIZATION AND THEIR USE” (Bayer Aktiengesellschaft, priority 2019, published 2022)
# Positions of bridges follow the written chain, without caps; N, C: chain ends. Non-standard residues stand in square brackets, D forms with d. Residues, ends and D or L forms follow the SMILES beside them. AEEEA = NCCOCCOCCOCC(=O)O; PEG3 = NCCOCCOCCOCCC(=O)O
# Target: T1, AM1R (Homo sapiens, UniProt O60895+Q16602)
# T1 construct: EYFP; ECFP; expressed in transfected cells; host or cells: HEK-293 (transient co-transfection)
# Assay: Activity determination in vitro: cAMP/CRE-luciferase reporter assay in HEK293 cells transiently co-transfected with CLR and RAMP2
# Format: cell-based
# Conditions: for Emax: HEK293, normalized to [G14]ADM(14-52); for EC50: HEK293 with CLR/RAMP2, CRE-luciferase, 3 h stimulation
# Description: (1a) Activity Determination of Adrenomedullin Analogues in vitro
# Cell Culture HEK-293 cells (human embryonic kidney cells) were cultured in Ham's F-12/DMEM (1/1; v/v) containing 15% FCS under humidified atmosphere at 37° C. and 5% CO2 in 75 cm^2 cell culture flasks.
# Cells were cultured in 75 cm^2 flasks to 70-80% confluency. 45 μl Metafectene® Pro was diluted in 900 ρl Ham's F-12/DMEM (1/1; v/v) and incubated for 20 min at room temperature. 9 μg plasmid containing DNA of CLR fused to EYFP and 3 μg plasmid containing DNA of RAMP2 fused to ECFP were dissolved in 900 μl Ham's F-12/DMEM (1/1; v/v). The plasmid solution was mixed with the Metafectene® Pro solution and incubated for 25 min at room temperature. Medium was removed from the cells and replaced by 6 m1 Ham's F-12/DMEM (1/1; v/v) containing 15% FCS. After addition of transfection solution the cells were incubated for 3 h under humidified atmosphere at 37° C. and 5% CO2. For the second transfection 45 μl Metafectene® Pro was diluted in 900 μl Ham's F-12/DMEM (1/1; v/v) and incubated for 20 min at room temperature. 12 μg of pGL4.29[Luc2P/CRE/Hygro] plasmid containing DNA for the luciferase reporter gene luc2P (with CRE promotor region) were dissolved in 900 μl Ham's F-12/DMEM (1/1; v/v). The plasmid solution was mixed with the Metafectene® Pro solution and incubated for 25 min at room temperature. Medium was removed from the cells and replaced by 6 m1 Ham's F-12/DMEM (1/1; v/v) containing 15% FCS. After addition of transfection solution, the cells were incubated under humidified atmosphere at 37° C. and 5% CO2 over night.
# For coating of 96-well-plates, 50 μl of a poly-D-lysine solution in DPBS (0.1 mg/ml) were pipetted in each well and incubated for 40 min. After removal of poly-D-lysine, each well was washed with 50 μl DPBS. Transiently transfected cells were detached from the cell culture flask by removal of the medium, 2-fold washing with 5 m1 DPBS and resuspending in 40 m1 Ham's F-12/DMEM (1/1; v/v) containing 15% FCS. 90,000 to 120,000 cells in 150 μl Ham's F-12/DMEM (1/1; v/v) containing 15% FCS were seeded per well and the plates were incubated under humidified atmosphere at 37° C. and 5% CO2 over night.
# For each ligand, a serial dilution with eight different concentrations was prepared using Ham's F^12/DMEM (1/1; v/v). Before stimulation, the medium on the cells was replaced by 100 μl Ham's F^12/DMEM (1/1; v/v) and the plates were incubated for 1 h under humidified atmosphere at 37° C. and 5% CO2. For stimulation, the medium was removed and the cells were incubated for 3 h in 80 μl of ligand-solution under humidified atmosphere at 37° C. and 5% CO2. In addition 80 μl of a 5 μM forskolin solution in Ham's F-12/DMEM (1/1; v/v) was used as a positive control and 80 μl of Ham's F-12/DMEM (1/1; v/v) as a negative control. Each concentration and the controls were tested as triplicates.
# After 3 h of stimulation, the solutions were removed and the cells were washed with 50 μl of Ham's F-12/DMEM (1/1; v/v) perwell. After 10 m incubation in 30 μl of Ham's F-12/DMEM (1/1; v/v) at room temperature, 30 μl of luciferase-solution (ONE-Glo™ Luciferase Assay System) was added and the luminescence was directly measured using an Infinite M200 (Tecan).
# Data analysis of the luminescence measurement was carried out with GraphPad Prism 5. Therefore, the measured luminescence values of each plate were first corrected on the base of the respective average of forskolin stimulation. Afterwards they were normalized to [G14]ADM(14-52), which was used as standard peptide in every assay. After correction and normalization, data was analyzed using non-linear regression giving dose-response curves for each tested ligand.
# T1 sequence (Q16602 23-461): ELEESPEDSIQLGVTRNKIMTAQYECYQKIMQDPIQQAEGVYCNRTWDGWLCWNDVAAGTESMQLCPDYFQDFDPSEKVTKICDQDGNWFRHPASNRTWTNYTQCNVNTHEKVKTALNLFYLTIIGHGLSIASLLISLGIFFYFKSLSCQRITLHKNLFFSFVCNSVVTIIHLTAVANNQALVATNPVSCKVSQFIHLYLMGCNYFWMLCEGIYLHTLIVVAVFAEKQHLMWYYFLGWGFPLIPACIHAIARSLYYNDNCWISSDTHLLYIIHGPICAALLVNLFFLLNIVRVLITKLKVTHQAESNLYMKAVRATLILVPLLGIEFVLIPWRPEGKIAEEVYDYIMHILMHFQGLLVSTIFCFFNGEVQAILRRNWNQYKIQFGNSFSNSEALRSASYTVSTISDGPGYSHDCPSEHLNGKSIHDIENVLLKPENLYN
# T1 sequence (O60895 43-175): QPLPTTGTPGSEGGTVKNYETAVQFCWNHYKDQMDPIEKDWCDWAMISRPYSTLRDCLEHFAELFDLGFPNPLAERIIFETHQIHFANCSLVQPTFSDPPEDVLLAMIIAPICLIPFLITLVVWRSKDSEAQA
Emax [%],EC50 [nM],SMILES
93 ± 2,16,"CC[C@H](C)[C@H](NC(=O)[C@H](CCC(N)=O)NC(=O)[C@H](Cc1c[nH]cn1)NC(=O)[C@H](C)NC(=O)[C@H](CC(C)C)NC(=O)[C@H](CCCCN)NC(=O)[C@H](CCC(N)=O)NC(=O)[C@@H](NC(=O)[C@@H](NC(=O)[C@@H]1CSSC[C@H](NC(=O)CNC(=O)CN)C(=O)N[C@@H](CCCNC(=N)N)C(=O)N[C@@H](Cc2ccccc2)C(=O)NCC(=O)N[C@@H]([C@@H](C)O)C(=O)N1)[C@@H](C)O)C(C)C)C(=O)N[C@@H](Cc1ccc(O)cc1)C(=O)N[C@@H](CCC(N)=O)C(=O)N[C@@H](Cc1ccccc1)C(=O)N[C@H](C(=O)N[C@@H](CC(=O)O)C(=O)N[C@@H](CCCCN)C(=O)N[C@@H](CC(=O)O)C(=O)N[C@@H](CCCCN)C(=O)N[C@@H](CC(=O)O)C(=O)N[C@@H](CC(N)=O)C(=O)N[C@H](C(=O)N[C@@H](C)C(=O)N1CCC[C@H]1C(=O)N[C@H]1CCCCNC(=O)CC[C@@H](C(=O)N2CCC[C@H]2C(=O)N[C@@H](CCC(N)=O)C(=O)NCC(=O)N[C@@H](Cc2ccc(O)cc2)C(N)=O)NC(=O)[C@H]([C@@H](C)CC)NC(=O)[C@H](CCCCN)NC(=O)[C@H](CO)NC1=O)C(C)C)[C@@H](C)O [Example 3, ((4R,7S,13S,16S,19R)-19-(2-(2-aminoacetamido)acetamido)-13-benzyl-16-(3-guanidinopropyl)-7-((R)-1-hydroxyethyl)-6,9,12,15,18-pentaoxo-1,2-dithia-5,8,11,14,17-pentaazacycloicosane-4-carbonyl)-L-threonyl-ADM(23-43)-((2S,5S,8S,11S,20S)-5-(4-aminobutyl)-20-(λ^2-azaneyl)-8-((S)-sec-butyl)-2-(hydroxymethyl)-3,6,9,14,21-pentaoxo-1,4,7,10,15-pentaazacyclohenicosane-11-carbonyl)-L-prolyl-ADM(50-52)] (H-GGCRFGTCTVQKLAHQIYQFTDKDKDNVAPKSKIEPQGY-NH2; disulfide 3-8; lactam 31-35)"
105 ± 5,17,"CC[C@H](C)[C@H](NC(=O)[C@H](CCC(N)=O)NC(=O)[C@H](Cc1c[nH]cn1)NC(=O)[C@H](C)NC(=O)[C@H](CC(C)C)NC(=O)[C@H](CCCCN)NC(=O)[C@H](CCC(N)=O)NC(=O)[C@@H](NC(=O)[C@@H](NC(=O)[C@@H]1CSSC[C@H](NC(=O)CNC(=O)[C@@H](N)CCCCNC(=O)CCCCCCCCCCCCCCCCC(=O)O)C(=O)N[C@@H](CCCNC(=N)N)C(=O)N[C@@H](Cc2ccccc2)C(=O)NCC(=O)N[C@@H]([C@@H](C)O)C(=O)N1)[C@@H](C)O)C(C)C)C(=O)N[C@@H](Cc1ccc(O)cc1)C(=O)N[C@@H](CCC(N)=O)C(=O)N[C@@H](Cc1ccccc1)C(=O)N[C@H](C(=O)N[C@@H](CC(=O)O)C(=O)N[C@@H](CCCCN)C(=O)N[C@@H](CC(=O)O)C(=O)N[C@@H](CCCCN)C(=O)N[C@@H](CC(=O)O)C(=O)N[C@@H](CC(N)=O)C(=O)N[C@H](C(=O)N[C@@H](C)C(=O)N1CCC[C@H]1C(=O)N[C@@H](CCCNC(=N)N)C(=O)N[C@@H](CO)C(=O)N[C@@H](CCCCN)C(=O)N[C@H](C(=O)N[C@@H](CO)C(=O)N1CCC[C@H]1C(=O)N[C@@H](CCC(N)=O)C(=O)NCC(=O)N[C@@H](Cc1ccc(O)cc1)C(N)=O)[C@@H](C)CC)C(C)C)[C@@H](C)O [Example 5, ((4R,7S,13S,16S,19R)-19-(2-((S)-2-amino-6-(17-carboxyoctadecanamido)hexanamido)acetamido)-13-benzyl-16-(3-guanidinopropyl)-7-((R)-1-hydroxyethyl)-6,9,12,15,18-pentaoxo-1,2-dithia-5,8,11,14,17-pentaazacycloicosane-4-carbonyl)-L-threonyl-ADM(23-52)]"
95 ± 7,21,"CC[C@H](C)[C@H](NC(=O)[C@H](CCC(N)=O)NC(=O)[C@H](Cc1c[nH]cn1)NC(=O)[C@H](C)NC(=O)[C@H](CC(C)C)NC(=O)[C@H](CCCCN)NC(=O)[C@H](CCC(N)=O)NC(=O)[C@@H](NC(=O)[C@@H](NC(=O)[C@@H]1CSSC[C@H](NC(=O)CNC(=O)CN)C(=O)N[C@@H](CCCNC(=N)N)C(=O)N[C@@H](Cc2ccccc2)C(=O)NCC(=O)N[C@@H]([C@@H](C)O)C(=O)N1)[C@@H](C)O)C(C)C)C(=O)N[C@@H](Cc1ccc(O)cc1)C(=O)N[C@@H](CCC(N)=O)C(=O)N[C@@H](Cc1ccccc1)C(=O)N[C@H](C(=O)NCCOCCOCCOCC(=O)N[C@@H](CC(=O)O)C(=O)N[C@@H](CC(N)=O)C(=O)N[C@H](C(=O)N[C@@H](C)C(=O)N1CCC[C@H]1C(=O)N[C@@H](CCCNC(=N)N)C(=O)N[C@@H](CO)C(=O)N[C@@H](CCCCN)C(=O)N[C@H](C(=O)N[C@@H](CO)C(=O)N1CCC[C@H]1C(=O)N[C@@H](CCC(N)=O)C(=O)NCC(=O)N[C@@H](Cc1ccc(O)cc1)C(N)=O)[C@@H](C)CC)C(C)C)[C@@H](C)O [Example 6, ((4R,7S,13S,16S,19R)-19-(2-(2-aminoacetamido)acetamido)-13-benzyl-16-(3-guanidinopropyl)-7-((R)-1-hydroxyethyl)-6,9,12,15,18-pentaoxo-1,2-dithia-5,8,11,14,17-pentaazacycloicosane-4-carbonyl)-L-threonyl-ADM(23-34)-(2-(2-(2-(2-(k2-azaneyl)ethoxy)ethoxy)ethoxy)acetyl)-L-aspartyl-ADM(40-52)] (H-GGCRFGTCTVQKLAHQIYQFT[AEEEA]DNVAPRSKISPQGY-NH2; disulfide 3-8)"
103 ± 4,13,"CC[C@H](C)[C@H](NC(=O)[C@H](CCC(N)=O)NC(=O)[C@H](Cc1c[nH]cn1)NC(=O)[C@H](C)NC(=O)[C@H](CC(C)C)NC(=O)[C@H](CCCCN)NC(=O)[C@H](CCC(N)=O)NC(=O)[C@@H](NC(=O)[C@@H](NC(=O)[C@@H]1CSSC[C@H](NC(=O)CNC(=O)CN)C(=O)N[C@@H](CCCNC(=N)N)C(=O)N[C@@H](Cc2ccccc2)C(=O)NCC(=O)N[C@@H]([C@@H](C)O)C(=O)N1)[C@@H](C)O)C(C)C)C(=O)N[C@@H](Cc1ccc(O)cc1)C(=O)N[C@@H](CCC(N)=O)C(=O)N[C@@H](Cc1ccccc1)C(=O)N[C@H](C(=O)NCCOCCOCCOCCC(=O)N[C@@H](CC(=O)O)C(=O)N[C@@H](CC(N)=O)C(=O)N[C@H](C(=O)N[C@@H](C)C(=O)N1CCC[C@H]1C(=O)N[C@@H](CCCNC(=N)N)C(=O)N[C@@H](CO)C(=O)N[C@@H](CCCCN)C(=O)N[C@H](C(=O)N[C@@H](CO)C(=O)N1CCC[C@H]1C(=O)N[C@@H](CCC(N)=O)C(=O)NCC(=O)N[C@@H](Cc1ccc(O)cc1)C(N)=O)[C@@H](C)CC)C(C)C)[C@@H](C)O [Example 7, ((4R,7S,13S,16S,19R)-19-(2-(2-aminoacetamido)acetamido)-13-benzyl-16-(3-guanidinopropyl)-7-((R)-1-hydroxyethyl)-6,9,12,15,18-pentaoxo-1,2-dithia-5,8,11,14,17-pentaazacycloicosane-4-carbonyl)-L-threonyl-ADM(23-34)-(3-(2-(2-(2-(λ^2-azaneyl)ethoxy)ethoxy)ethoxy)propanoyl)-L-aspartyl-ADM(40-52)] (H-GGCRFGTCTVQKLAHQIYQFT[PEG3]DNVAPRSKISPQGY-NH2; disulfide 3-8)"
